In patent publication US8394791B2, “Crystalline, enantiomerically pure salt form of a beta-agonist, and the use thereof as a drug” (Boehringer Ingelheim International GmbH, priority 2008, dated 2013):

Key:
[1] = Sorption profile (DVS sorption balance), hygroscopic characteristics; format: physicochemical; conditions: relative humidity range between 10-90%; crystalline form
Method: Sorption Profile (DSV Diagram, Kinetic & Isothermic Plot, FIG. 3)
Technical Data Relating to the Sorption Balance Used:
DVS-1 made by Surface Measurement Systems (=SMS) for analysing the hygroscopic characteristics; humidity profile of 10-90% r.h. In 10% steps, recording both a sorption and a desorption profile, weight: 10-20 mg

Thermoanalysis (DSC/TG) = format: physicochemical; conditions: heating rate 10 K/min, crystalline form (FIG. 2)
Method: Thermoanalysis (DSC/TG Diagram, FIG. 2)
Technical Data Relating to the Thermoanalytical DSC Device Used:
DSC 822 made by Mettler Toledo; heating rate: 10 K/min; type of crucible: perforated aluminium crucible; atmosphere: N2, 80 ml/min flux; weight: 3-10 mg.
Technical Data Relating to the Thermoanalytical TG Device Used:
TGA/SDTA 851 Made by Mettler Toledo with IR coupling (Nicolet FT-IR 4700) for analysing the volatile fractions driven off; heating rate: 10 K/min; type of crucible: open aluminium oxide crucible; atmosphere: N2, 20 ml/min flux; weight: 15-25 mg.

CCC1(CC)OC(=O)N(CCC(C)(C)NC[C@H](O)c2ccc(O)c(NS(C)(=O)=O)c2)c2ccccc21 [compound 1, N-(5-{(R)-2-[3-(4,4-diethyl-2-oxo-4H-benzo[d][1,3]oxazin-1-yl)-1,1-dimethyl-propylamino]-1-hydroxy-ethyl}-2-hydroxy-phenyl)-methanesulphonamide]
water absorption [1]: less than 0.5 wt. %
thermally stable at a thermal load of up to (Thermoanalysis (DSC/TG)): up to 210 °C
